Measured values: patent US6653305B2, “Bicyclic heterocycles, pharmaceutical compositions containing them, their use, and processes for preparing them” (Boehringer Ingelheim Pharma KG, priority 2000, dated 2003)

Biological target: T1, human EGF-R (Homo sapiens, UniProt P00533)
T1 construct: expressed in transfected cells; host or cells: F/L-HERc cells (murine IL-3-dependent FDC-P1 line transduced with LXSN retroviral vector carrying human EGF-R cDNA; packaging line GP+E86)
Experiment: Inhibition of EGF-dependent proliferation of F/L-HERc cells (Cell Titer 96 assay)
Type: cell-based
Settings: F/L-HERc cells (murine IL-3-dependent line expressing human EGF-R), stimulated with EGF 20 ng/ml, 48 hours at 37° C.
Excerpt: A cell line of murine origin dependent on interleukin-3-(IL-3) which was genetically modified to express functional human EGF-R was used here. The proliferation of these cells known as F/L-HERc can therefore be stimulated either by murine IL-3 or by EGF (cf. T. von Rüden et al. in EMBO J. 7, 2749-2756 (1988) and J. H. Pierce et al. in Science 239, 628-631 (1988)).
The starting material used for the F/L-HERc cells was the cell line FDC-P1, the production of which has been described by T. M. Dexter et al. in J. Exp. Med. 152, 1036-1047 (1980). Alternatively, however, other growth-factor-dependent cells may also be used (cf., for example, J. H. Pierce et al. in Science 239, 628-631 (1988), H. Shibuya et al. in Cell 70, 57-67 (1992) and W. S. Alexander et al. in EMBO J. 10, 3683-3691 (1991)). For expressing the human EGF-R cDNA (cf. A. Ullrich et al. in Nature 309, 418-425 (1984)) recombinant retroviruses were used as described by T. von Rüden et al., EMBO J. 7, 2749-2756 (1988), except that the retroviral vector LXSN (cf. A. D. Miller et al. in BioTechniques 7, 980-990 (1989)) was used for the expression of the EGF-R cDNA and the line GP+E86 (cf. D. Markowitz et al. in J. Virol. 62, 1120-1124 (1988)) was used as the packaging cell.
The test was performed as follows:
F/L-HERc cells were cultivated in RPMI/1640 medium (Bio Whittaker), supplemented with 10% fetal calf serum (FCS, Boehringer Mannheim), 2 mM glutamine (Bio Whittaker), standard antibiotics and 20 ng/ml of human EGF (Promega), at 37° C. and 5% CO2. In order to investigate the inhibitory activity of the compounds according to the invention, 1.5×10^4 cells per well were cultivated in triplicate in 96-well dishes in the above medium (200 μl), the cell proliferation being stimulated with either EGF (20 ng/ml) or murine IL-3. […]
In order to determine the inhibitory activity of the compounds according to the invention the relative cell number was measured in O.D. units using the Cell Titer 96™ Aqueous Non-Radioactive Cell Proliferation Assay (Promega). […]

T1 sequence (P00533 25-1210): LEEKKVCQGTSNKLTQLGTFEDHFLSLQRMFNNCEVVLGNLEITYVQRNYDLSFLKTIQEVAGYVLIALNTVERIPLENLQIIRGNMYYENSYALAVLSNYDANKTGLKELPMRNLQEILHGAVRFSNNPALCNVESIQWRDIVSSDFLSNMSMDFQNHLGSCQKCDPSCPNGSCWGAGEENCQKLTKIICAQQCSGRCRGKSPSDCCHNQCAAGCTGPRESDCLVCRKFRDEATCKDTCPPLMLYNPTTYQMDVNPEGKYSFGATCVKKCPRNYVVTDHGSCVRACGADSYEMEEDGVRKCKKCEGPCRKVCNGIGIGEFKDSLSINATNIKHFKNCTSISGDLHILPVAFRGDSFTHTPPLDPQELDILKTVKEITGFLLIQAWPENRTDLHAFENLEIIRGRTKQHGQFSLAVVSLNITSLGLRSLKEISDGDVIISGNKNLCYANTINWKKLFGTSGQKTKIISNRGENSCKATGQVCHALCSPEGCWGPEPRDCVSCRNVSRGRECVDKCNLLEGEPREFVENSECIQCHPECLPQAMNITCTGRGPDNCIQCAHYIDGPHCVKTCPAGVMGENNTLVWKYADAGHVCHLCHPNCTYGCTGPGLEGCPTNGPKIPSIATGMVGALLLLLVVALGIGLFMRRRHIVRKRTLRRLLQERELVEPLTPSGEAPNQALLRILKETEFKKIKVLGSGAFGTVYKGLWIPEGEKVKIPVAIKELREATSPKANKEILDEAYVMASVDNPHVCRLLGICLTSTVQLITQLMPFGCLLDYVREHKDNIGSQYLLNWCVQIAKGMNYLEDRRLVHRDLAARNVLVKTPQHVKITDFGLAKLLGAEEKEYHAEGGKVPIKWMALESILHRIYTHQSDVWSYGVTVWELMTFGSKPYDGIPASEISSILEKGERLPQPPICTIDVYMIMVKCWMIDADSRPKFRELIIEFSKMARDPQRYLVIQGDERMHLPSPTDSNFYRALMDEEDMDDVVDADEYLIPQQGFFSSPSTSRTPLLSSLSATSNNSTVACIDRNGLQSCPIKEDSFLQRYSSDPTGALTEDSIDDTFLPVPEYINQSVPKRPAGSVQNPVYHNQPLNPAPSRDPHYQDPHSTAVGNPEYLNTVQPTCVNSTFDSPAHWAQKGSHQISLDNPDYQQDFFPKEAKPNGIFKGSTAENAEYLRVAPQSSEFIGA

| IC50 | SMILES |
| --- | --- |
| 9 nM | C[C@@H]1CN(CC=CC(=O)Nc2cc3c(Nc4ccc(F)c(Cl)c4)ncnc3cc2OCC2CC2)CC(=O)O1 [2(1), 4-[(3-chloro-4-fluorophenyl)amino]-6-{[4-((R)-6-methyl-2-oxomorpholin-4-yl)-1-oxo-2-buten-1-yl]amino}-7-cyclopropylmethoxyquinazoline] |
| 15 nM | C[C@H]1CN(CC=CC(=O)Nc2cc3c(Nc4ccc(F)c(Cl)c4)ncnc3cc2OCC2CC2)CC(=O)O1 [Example 2, 4-[(3-chloro-4-fluorophenyl)amino]-6-{[4-((S)-6-methyl-2-oxomorpholin-4-yl)-1-oxo-2-buten-1-yl]amino}-7-cyclopropylmethoxyguinazoline] |
| 0.02 nM | CN(CC=CC(=O)Nc1cc2c(Nc3ccc(F)c(Cl)c3)ncnc2cc1OCC1CC1)CC1OCCO1 [1(2), 4-[(3-chloro-4-fluorophenyl)amino]-6-[(4-{N-[(1,3-dioxolan-2-yl)methyl]-N-methylamino}-1-oxo-2-buten-1-yl)amino]-7-cyclopropylmethoxyquinazoline] |

Tested on: not given
Experiment: not given
Settings: not given

| SMILES | melting point |
| --- | --- |
| C[C@H]1C(=O)OCCN1CC=CC(=O)Nc1cc2c(Nc3ccc(F)c(Cl)c3)ncnc2cc1OCC1CC1 [Example 2(2), 4-[(3-chloro-4-fluorophenyl)amino]-6-{[4-((S)-3-methyl-2-oxomorpholin-4-yl)-1-oxo-2-buten-1-yl]amino}-7-cyclopropylmethoxyquinazoline] | 182 °C |
| C[C@@H]1CN(CC=CC(=O)Nc2cc3c(Nc4ccc(F)c(Cl)c4)ncnc3cc2O[C@@H]2CCOC2)CC(=O)O1 [Example 2(7), 4-[(3-chloro-4-fluorophenyl)amino]-6-{[4-((R)-6-methyl-2-oxomorpholin-4-yl)-1-oxo-2-buten-1-yl]amino}-7-[(R)-(tetrahydrofuran-3-yl)oxy]quinazoline] | 230 °C |
| CN(CC=CC(=O)Nc1cc2c(Nc3ccc(F)c(Cl)c3)ncnc2cc1OCC1CC1)CC1OCCO1 [1(2), 4-[(3-chloro-4-fluorophenyl)amino]-6-[(4-{N-[(1,3-dioxolan-2-yl)methyl]-N-methylamino}-1-oxo-2-buten-1-yl)amino]-7-cyclopropylmethoxyquinazoline] | 121 °C |

Now from value to compound:

| melting point | SMILES |
| --- | --- |
| 196 to 199 °C | C[C@H]1CN(CC=CC(=O)Nc2cc3c(Nc4ccc(F)c(Cl)c4)ncnc3cc2OCC2CCOCC2)CC(=O)O1 [Example 2(21), 4-[(3-chloro-4-fluorophenyl)amino]-6-{[4-((S)-6-methyl-2-oxomorpholin-4-yl)-1-oxo-2-buten-1-yl]amino}-7-[(tetrahydropyran-4-yl)methoxy]quinazoline] |
| 196 °C | C[C@@H]1CN(CC=CC(=O)Nc2cc3c(Nc4ccc(F)c(Cl)c4)ncnc3cc2OCC2CCOCC2)CC(=O)O1 [Example 2(19), 4-[(3-chloro-4-fluorophenyl)amino]-6-{[4-((R)-6-methyl-2-oxomorpholin-4-yl)-1-oxo-2-buten-1-yl]amino}-7-[(tetrahydropyran-4-yl)methoxy]quinazoline] |
